Results as given in patent US7442699B2, “Anilinopyrimidine derivatives as IKK inhibitors and compositions and methods related thereto” (Signal Pharmaceuticals, LLC, priority 2000, dated 2008).
Structures can show the parent of a compound that is named as a salt. Where two headings read alike, the source gives them in different places.

Biological target: T1, IKK-2 (Homo sapiens, UniProt O14920, S177E/S181E)
T1 construct: His6
T1 sequence (O14920 1-756 S177E/S181E): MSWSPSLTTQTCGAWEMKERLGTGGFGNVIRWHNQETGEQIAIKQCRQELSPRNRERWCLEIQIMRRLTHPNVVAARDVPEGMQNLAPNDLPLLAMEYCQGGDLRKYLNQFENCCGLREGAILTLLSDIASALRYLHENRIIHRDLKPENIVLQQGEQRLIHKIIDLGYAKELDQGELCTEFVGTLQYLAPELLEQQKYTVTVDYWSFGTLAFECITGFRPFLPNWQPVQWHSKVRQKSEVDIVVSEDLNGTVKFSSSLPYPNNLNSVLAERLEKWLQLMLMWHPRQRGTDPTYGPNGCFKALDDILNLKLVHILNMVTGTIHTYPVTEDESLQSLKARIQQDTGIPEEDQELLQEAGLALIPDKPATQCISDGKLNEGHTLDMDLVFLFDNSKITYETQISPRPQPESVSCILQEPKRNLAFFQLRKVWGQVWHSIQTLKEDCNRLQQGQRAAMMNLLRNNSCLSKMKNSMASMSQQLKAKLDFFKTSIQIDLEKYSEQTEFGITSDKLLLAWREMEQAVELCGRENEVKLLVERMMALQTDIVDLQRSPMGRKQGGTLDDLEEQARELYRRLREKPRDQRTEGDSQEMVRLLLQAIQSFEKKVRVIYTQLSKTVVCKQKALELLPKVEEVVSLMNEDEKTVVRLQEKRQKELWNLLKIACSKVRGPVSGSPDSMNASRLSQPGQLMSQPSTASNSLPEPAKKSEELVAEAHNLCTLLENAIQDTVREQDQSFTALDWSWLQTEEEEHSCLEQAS
Test: IKK-2 Enzyme Assay
Format: biochemical
Conditions: read-out: IC50 value in the IKK-2 Enzyme Assay
Method: The mixture is preincubated for 15 minutes at room temperature. […] After 30 minutes the precipitate is harvested onto a filter plate to which 50 μl of scintillation fluid is added and then quantified by a scintillation counter.

[1] = more preferred compounds, 500 nM or less
[2] = preferred compounds, 1 μM or less

Structure (SMILES): C[C@@H]1CN(C(=O)c2ccc(Nc3nccc(-c4ccc(Cl)cc4)n3)cc2)C[C@H](C)N1 [Compound 17-190]
- IC50 [1]: ≤ 500 nM
- IC50 [2]: ≤ 1000 nM

Structure (SMILES): O=C(c1ccc(Nc2nccc(-c3ccc(Cl)cc3)n2)cc1)N1CCN(CCO)CC1 [Compound 17-215]
- IC50 [1]: ≤ 500 nM
- IC50 [2]: ≤ 1000 nM

Structure (SMILES): O=C(c1ccc(Nc2nccc(-c3ccc(Cl)cc3)n2)cc1)N1CCNCC1 [Compound 18, 4-{[4-(4-chlorophenyl)pyrimidin-2-yl]amino}benzoic acid piperazine amide hydrochloride]
- IC50 [1]: ≤ 500 nM
- IC50 [2]: ≤ 1000 nM

Structure (SMILES): CC(=O)NC1CCN(C(=O)c2ccc(Nc3nccc(-c4ccc(Cl)cc4)n3)cc2)CC1 [Compound 20-1, N-{1-[(4-{[4-(4-Chlorophenyl)pyrimidin-2-yl]amino}phenyl)carbonyl]-4-piperidyl}acetamide]
- IC50 [1]: ≤ 500 nM
- IC50 [2]: ≤ 1000 nM

Structure (SMILES): Cc1noc(C)c1C(=O)NC1CCN(C(=O)c2ccc(Nc3nccc(-c4ccc(Cl)cc4)n3)cc2)CC1 [Compound 20-2]
- IC50 [1]: ≤ 500 nM
- IC50 [2]: ≤ 1000 nM

Structure (SMILES): O=C(NC1CCN(C(=O)c2ccc(Nc3nccc(-c4ccc(Cl)cc4)n3)cc2)CC1)c1cccs1 [Compound 20-3]
- IC50 [1]: ≤ 500 nM
- IC50 [2]: ≤ 1000 nM

Structure (SMILES): O=C(NC1CCN(C(=O)c2ccc(Nc3nccc(-c4ccc(Cl)cc4)n3)cc2)CC1)N1CCOCC1 [Compound 20-4]
- IC50 [1]: ≤ 500 nM
- IC50 [2]: ≤ 1000 nM

Structure (SMILES): CN(C)C(=O)NC1CCN(C(=O)c2ccc(Nc3nccc(-c4ccc(Cl)cc4)n3)cc2)CC1 [Compound 20-5]
- IC50 [1]: ≤ 500 nM
- IC50 [2]: ≤ 1000 nM

Structure (SMILES): COCC(=O)NC1CCN(C(=O)c2ccc(Nc3nccc(-c4ccc(Cl)cc4)n3)cc2)CC1 [Compound 20-6]
- IC50 [1]: ≤ 500 nM
- IC50 [2]: ≤ 1000 nM
